How the values were obtained:
[1] = system: Pf cultures; details: ref [9]; cited from earlier work
[2] = molecular target: Hs20S β5c (Homo sapiens, UniProt P20618+P28074); experiment: Hs20S β5c activity, Ac-WLA-AMC cleavage with human PA28αβ; type: biochemical

## CC(C)C[C@H](NC(=O)[C@H](Cc1ccccc1)NC(=O)c1cnccn1)B(O)O [Bortezomib, bortezomib, reference compound]
[1]
  Synergy with dihydroxyartemisinin (DHA): strong synergy
[2]
  More potent as inhibitor of Hsβ5c activity than of Pfβ5 activity: twofold

Source: paper PMC8488693 (Proceedings of the National Academy of Sciences of the …, 2021)
